{"source": "paper PMC7380097", "about": "“Measurement of Bradykinin Formation and Degradation in Blood Plasma: Relevance for Acquired Angioedema Associated With Angiotensin Converting Enzyme Inhibition and for Hereditary Angioedema Due to Factor XII or Plasminogen Gene Variants” (Frontiers in Medicine, 2020)", "molecules": {"B1": {"name": "lanadelumab: Human monoclonal antibody, target plasma kallikrein (antibody, chains of the INN, looked up, V domains shown)", "VH": "EVQLLESGGGLVQPGGSLRLSCAASGFTFSHYIMMWVRQAPGKGLEWVSGIYSSGGITVYADSVKGRFTISRDNSKNTLYLQMNSLRAEDTAVYYCAYRRIGVPRRDEFDIWGQGTMVTVSS", "VL": "DIQMTQSPSTLSASVGDRVTITCRASQSISSWLAWYQQKPGKAPKLLIYKASTLESGVPSRFSGSGSGTEFTLTISSLQPDDFATYYCQQYNTYWTFGQGTKVEIK"}}, "key": {"[1]": {"test_system": "human B1 receptor", "conditions": "cited from earlier work", "excerpt": "In the plasminogen sequence, the residue 330 is not proximal to a physiological cleavage site or to the catalytic site: it is rather located within a potential adhesion site in the kringle 3 domain of the molecule ([5]). However, the K330E variant is associated with a distinct N-glysosylation pattern and an increased susceptibility to activation by urokinase-type plasminogen activator (uPA), but not by tPA (assessed only using a chromogenic substrate) ([41]). […] If uP ..."}, "[2]": {"conditions": "cited from earlier work", "excerpt": "ACE blockade greatly increases BK persistence and pharmacological effect in human whole blood under a variety of in vitro stimulation conditions ([20]). Membrane-bound ACE produced by vascular endothelial cells is shed in an apparently regulated manner into blood plasma ([34]), allowing the use of blood/plasma/serum to monitor ACE activity in human subjects."}, "[3]": {"assay": "in vitro", "type": "in vitro ADME", "conditions": "human; for half-life at 100 nM: plasma", "experimental": "(§1) Venous blood was collected without contact with glass in plastic blood collection tubes with 0.11 M sodium citrate (BD Vacutainer Plus, BD Biosciences, Franklin Lake, NJ); the plasma was obtained by centrifugation (1,300 g, 20 min, room temperature), stored at −80°C until use and/or expedition on dry ice to Quebec City. The in vitro activation of plasma at 37°C (200 μl per experimental point sample) was performed precisely as described ([21]) in the presence of enalaprilat (final concentration 130 nM) to reduce the breakdown of BK. The samples were incubated for up to 120 min under rotary agitation (300 rpm) without any added stimulant or with recombinant human tissue kallikrein (KLK-1, 10 nM; gift from DiaMedica, Inc.), with the particulate contact system activator Pacific Hemostasis Kontact-APTT™ (2% v/v; used without the calcium supplement; composed mainly of magnesium aluminum silica and rabbit brain phospholipid; ThermoFisher Scientific) or with recombinant tissue plasminogen activator (tPA, 169 nM; Cathflo, Roche). The tPA concentration was reproduced from Molinaro et al. ([19]) and within the range reached in plasma during therapeutic fibrinolysis. Biotechnological inhibitors used in the mechanistic analysis of iBK formation were previously exploited ([20], [21]) and are listed in Table 2.\nAn additional set of experiments aimed at measuring the rate of BK breakdown in the presence or absence of the ACE inhibitor enalaprilat or in plasma from selected human subjects: synthetic BK (100 nM) was added to 200 μl of plasma from healthy volunteers or HAE-nC1-INH patients and incubated at 37°C under agitation for 0–20 min.\nIn all experiments dealing with BK EIA, the reactions were stopped by adding 1 ml of cold ethanol, as described ([21]). After further incubation on ice-water for an additional period of at least 60 min, the plasma/ethanol mixtures were cleared of precipitated proteins by centrifugation (13,000 g, 1 min), evaporated to dryness (Speed Vac apparatus) and stored at −80°C until used for BK determination. Then, the samples were reconstituted with 200 μl of distilled water, further diluted 100-fold (1,000-fold for selected samples) with the supplied EIA buffer and directly applied in duplicate to the BK EIA as recommended by the manufacturer (Phoenix Pharmaceuticals, Burlingame, CA; cat. no. EK-009-01; 96-well plate format). The BK EIA is fully cross-reactive with Lys-BK, but not at all with des-Arg^9-BK or Lys-des-Arg^9-BK.\nNumerical values are reported as means ± standard errors of the mean (S.E.M.). Sets of values were compared with Kruskall-Wallis test (non-parametric ANOVA) followed by Dunn's multiple comparison test to compare selected pairs of values. Pairs of values were compared using Mann-Whitney test (Prism 5.0, GraphPad Software Inc., San Diego, CA). The half-life (t1/2) of iBK was calculated as the first order decay procedure in a software suite ([30])."}, "[4]": {"assay": "Blood pressure of healthy volunteers taking enalapril maleate", "type": "in vivo, human", "conditions": "two normotensive healthy volunteers, 2 daily doses of enalapril maleate 10 mg (Figure S1)", "experimental": "We previously reported that iBK formation was negligible in either whole blood or plasma incubated at 37°C without stimulus both in healthy donors and HAE patients sampled during remission (HAE-C1-INH type I or II) ([20], [21]). This may be paradoxical because HK is spontaneously and progressively cleaved in the blood of patients with HAE-C1-INH ([15], [16]) or HAE-nC1-INH ([17]). A possible explanation is the efficient clearance of kinins."}, "[5]": {"test_system": "angiotensin converting enzyme (ACE)", "assay": "Effect of oral enalapril maleate on ex vivo BK half-life in plasma of healthy volunteers", "parameters": "species or system human", "conditions": "2 daily oral doses of enalapril maleate 10 mg, healthy volunteers (two), plasma 24 h after the last dose vs before dosing", "protocol": "Numerical values are reported as means ± standard errors of the mean (S.E.M.). […] The half-life (t1/2) of iBK was calculated as the first order decay procedure in a software suite ([30])."}, "[6]": {"test_system": "human B2 receptor", "conditions": "cited from earlier work"}, "[7]": {"test_system": "KLK-1-induced iBK formation", "assay": "KLK-1-induced iBK formation in plasma from HAE-PLG patients, effect of lanadelumab", "type": "biochemical, human", "conditions": "KLK-1 10 nM, 5 min incubation, inhibitor added 5 min before KLK-1, enalaprilat 130 nM present, EIA", "experimental": "as §1, with “2. […]” for “2.”"}, "[8]": {"test_system": "iBK generation induced by tPA", "assay": "tPA-induced iBK generation in plasma from HAE-FXII (T328K) patients, effect of biotechnological inhibitors", "type": "biochemical, human", "conditions": "tPA 169 nM, 20 min incubation, enalaprilat 130 nM present, inhibitor added 5 min before stimulus, 37°C, EIA", "experimental": "as §1, with “2. […]” for “2.”"}, "[9]": {"test_system": "iBK generation induced by Kontact-APTT", "assay": "Kontact-APTT-induced iBK generation in plasma from HAE-FXII (T328K) patients, effect of biotechnological inhibitors", "type": "biochemical, human", "conditions": "Kontact-APTT 2% v/v, 5 min incubation, enalaprilat 130 nM present, inhibitor added 5 min before stimulus, 37°C, EIA", "experimental": "as §1, with “2. […]” for “2.”"}}, "note": "“And” between values parts separate entries of the source, which are not always exact repeats. Equal values may be shown once. “Also recorded” adds a separate entry of the source. Where a name gives a salt, the structure may show the parent alone. Residues, ends and D or L forms follow the SMILES beside them."}
{"molecule": "des-Arg^9-BK", "values": [{"measurement": "affinity for the human form of the B1 receptor", "setting": "[1]", "result": "low affinity"}, {"measurement": "change of half-life of synthetic des-Arg9-BK when ACE is blocked", "setting": "[2]", "result": "doubled"}]}
{"molecule": "NC(N)=NCCC[C@H](NC(=O)[C@H](Cc1ccccc1)NC(=O)[C@@H]1CCCN1C(=O)[C@H](CO)NC(=O)[C@H](Cc1ccccc1)NC(=O)CNC(=O)[C@@H]1CCCN1C(=O)[C@@H]1CCCN1C(=O)[C@@H](N)CCCN=C(N)N)C(=O)O", "note": "[BK, Bradykinin] (H-RPPGFSPFR-OH)", "values": [{"measurement": "half-life at 100 nM", "setting": "[3]; female, BK t1/2 in plasma of family d (HAE-nC1-INH, unknown cause)", "result": 22.5, "unit": "s"}, {"measurement": "half-life (t1/2) of BK in normal plasma", "setting": "[3]", "result": 33, "unit": "s"}, {"measurement": "half-life at 100 nM", "setting": "[3]; BK t1/2 in plasma 24 h after 2nd oral dose of enalapril maleate", "result": 190, "unit": "s"}, {"measurement": "half-life at 100 nM", "setting": "[3]; BK t1/2 in plasma before dosing (baseline)", "result": 39.5, "unit": "s"}, {"measurement": "half-life at 100 nM", "setting": "[3]; half-life (t1/2) of BK in normal plasma", "result": 34, "unit": "s"}, {"measurement": "half-life at 100 nM", "setting": "[3]; half-life (t1/2) of BK in plasma with ACE blocked by enalaprilat", "result": 426, "unit": "s"}, {"measurement": "t1/2 of BK in serum", "setting": "[2]", "result": 27, "unit": "s"}]}
{"molecule": "Lys-des-Arg^9-BK", "values": [{"measurement": "agonist status at the human B1 receptor", "setting": "[1]", "result": "optimal agonist"}]}
{"molecule": "CCOC(=O)[C@H](CCc1ccccc1)N[C@@H](C)C(=O)N1CCC[C@H]1C(=O)O", "note": "[enalapril maleate]", "values": [{"measurement": "blood pressure change during the experiment", "setting": "[4]", "result": "slight reversible drop"}, {"measurement": "fold increase of BK t1/2 in plasma after oral dosing", "setting": "[5]", "result": "~ 5 fold and 4.8 fold"}]}
{"molecule": "Lys-BK: kinin formed by KLK-1 mainly from low molecular weight kininogen; direct B2 receptor agonist", "values": [{"measurement": "potency relative to BK at the human B2 receptor", "setting": "[6]", "result": "approximately equipotent"}]}
{"molecule": "B1", "values": [{"measurement": "effect on KLK-1-induced iBK formation", "setting": "[7]", "result": "not decreased; also recorded: Lack of effect; also recorded: did not inhibit"}, {"measurement": "effect on early iBK release induced by tPA", "setting": "[8]", "result": "significantly decreased; also recorded: suppressed"}, {"measurement": "effect on early iBK response to Kontact-APTT", "setting": "[9]", "result": "significantly decreased"}]}
